Measured values taken from article PMC3848040 (Science (New York, N.Y.), 2013).

Legend:
GTDC2dTM = molecular target: T1, GTDC2dTM (Homo sapiens, UniProt Q8NAT1); experiment: glycosyl transfer, gel filtration and NMR of product; type: biochemical
T1 sequence (Q8NAT1 26-580 limits assumed): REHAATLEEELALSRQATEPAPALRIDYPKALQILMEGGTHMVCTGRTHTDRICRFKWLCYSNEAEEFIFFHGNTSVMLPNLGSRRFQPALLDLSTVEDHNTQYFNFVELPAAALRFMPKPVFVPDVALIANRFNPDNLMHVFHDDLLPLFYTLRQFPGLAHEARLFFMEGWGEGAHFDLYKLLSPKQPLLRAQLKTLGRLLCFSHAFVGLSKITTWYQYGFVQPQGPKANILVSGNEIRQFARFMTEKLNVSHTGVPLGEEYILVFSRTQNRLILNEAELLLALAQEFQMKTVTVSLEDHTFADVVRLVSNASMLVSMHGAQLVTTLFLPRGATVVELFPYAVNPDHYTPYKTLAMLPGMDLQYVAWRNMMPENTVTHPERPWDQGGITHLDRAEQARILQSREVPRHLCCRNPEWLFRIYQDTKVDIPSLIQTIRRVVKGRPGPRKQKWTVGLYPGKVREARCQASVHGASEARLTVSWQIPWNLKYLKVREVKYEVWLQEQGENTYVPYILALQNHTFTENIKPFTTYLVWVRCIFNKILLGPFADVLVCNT

B3GALNT2dTM = molecular target: T2, B3GALNT2dTM (Homo sapiens, UniProt Q8NCR0); experiment: glycosyl transfer, MALDI-TOF/MS; type: biochemical; conditions: donor; acceptor GlcNAc-β4-Man-O-peptide
T2 sequence (Q8NCR0 24-500 limits assumed): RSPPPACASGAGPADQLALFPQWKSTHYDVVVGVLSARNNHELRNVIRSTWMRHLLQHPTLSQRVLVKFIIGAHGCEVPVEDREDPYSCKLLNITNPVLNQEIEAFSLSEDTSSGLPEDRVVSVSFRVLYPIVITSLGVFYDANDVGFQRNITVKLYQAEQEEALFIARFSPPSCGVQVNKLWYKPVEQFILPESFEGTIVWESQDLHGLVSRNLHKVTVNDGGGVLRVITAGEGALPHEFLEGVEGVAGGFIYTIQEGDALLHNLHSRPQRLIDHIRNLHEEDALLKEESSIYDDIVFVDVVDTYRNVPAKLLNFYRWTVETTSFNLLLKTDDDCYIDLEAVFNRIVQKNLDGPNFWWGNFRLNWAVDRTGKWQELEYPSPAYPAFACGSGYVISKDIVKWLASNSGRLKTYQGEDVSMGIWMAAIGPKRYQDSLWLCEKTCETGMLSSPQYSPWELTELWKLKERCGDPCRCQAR

Cc1cc(=O)oc2cc(O[C@H]3O[C@H](CO)[C@@H](O)[C@H](O)[C@@H]3O)ccc12 [Man-α-MU, 4-methylumbelliferyl-α-D-mannoside]
glycosyl transfer, gel filtration and NMR of product (GTDC2dTM; acceptor, donor UDP-GlcNAc): conducted the transfer assay using fluorescently labeled mannoside (4-methylumbelliferyl-α-D-mannoside; Man-α-MU) as the acceptor

CC(=O)N[C@H]1[C@@H](OP(=O)(O)OP(=O)(O)OC[C@H]2O[C@@H](n3ccc(=O)[nH]c3=O)[C@H](O)[C@@H]2O)O[C@H](CO)[C@H](O)[C@@H]1O [UDP-GalNAc]
glycosyl transfer, MALDI-TOF/MS (B3GALNT2dTM): incubated this protein with UDPGalNAc and the GlcNAc-β4-Man-O-peptide produced by the GTDC2dTM reaction

CC(=O)N[C@H]1[C@@H](OP(=O)(O)OP(=O)(O)OC[C@H]2O[C@@H](n3ccc(=O)[nH]c3=O)[C@H](O)[C@@H]2O)O[C@H](CO)[C@@H](O)[C@@H]1O [UDP-GlcNAc]
glycosyl transfer, gel filtration and NMR of product (GTDC2dTM; donor, acceptor Man-α-MU): Reactant of the GTDC2dTM assay using Man-α-MU and UDP-GlcNAc was separated
